Reference: patent US10016424B2, “Method and pharmaceutical composition for use in the treatment of epilepsy” (INSERM (Institut National de la Sante et de la Recherche …, priority 2013, dated 2018)

Legend:
[1] = tested on: pilocarpine-status epilepticus model of chronic TLE; assay: Ictal discharges, telemetric intrahippocampal EEG in freely-moving pilocarpine-treated mice; assay type: in vivo, mouse
Protocol: (§1) All experiments were approved by the Institut National de la Santé et de la Recherche Médicale animal care and use committee of May 29, 2001 (2001-464) and the European community council directive of Nov. 24, 1986 (86/609/EEC). Mice (FVB/N background) had access to food and water ad libitum and were housed under a 12 h light/dark cycle at 22-24° C. Male GluK2−/− and WT mice (P60-80) were given scopolamine (1 mg/kg) subcutaneously (s.c.) 15 minutes prior to s.c. administration of pilocarpine (200-600 mg/kg). A ramp protocol was used whereby animals were given an initial dose of 200 mg/kg followed by half-doses every 30 minutes until seizures appeared. Both WT and GluK2−/− mice typically experienced at least two seizures prior to entering status epilepticus (SE). Diazepam (10 mg/kg) was administered 45 minutes after onset of SE.
Naïve wildtype (WT) and pilocarpine-treated WT or GluK2−/− mice (5-6 months old) were anaesthetized with xylazine 13 mg/kg/ketamine 66 mg/kg and placed in a stereotaxic frame (supplemental dosing was administered as required). Body temperature was maintained using a heating pad. […] After a 4 day recovery, EEG (amplified (1000×), filtered at 0.16-97 Hz pass, acquired at 500 Hz) was monitored using a telemetric system (Data Sciences International, St. Paul, Minn.) for 4 days, 24 h per day. […]

GluK2/GluK5 receptors = GluK2/GluK5 receptors (Homo sapiens, UniProt Q13002+Q16478); details: cited from earlier work
Sequence of GluK2/GluK5 receptors (Q13002 32-908): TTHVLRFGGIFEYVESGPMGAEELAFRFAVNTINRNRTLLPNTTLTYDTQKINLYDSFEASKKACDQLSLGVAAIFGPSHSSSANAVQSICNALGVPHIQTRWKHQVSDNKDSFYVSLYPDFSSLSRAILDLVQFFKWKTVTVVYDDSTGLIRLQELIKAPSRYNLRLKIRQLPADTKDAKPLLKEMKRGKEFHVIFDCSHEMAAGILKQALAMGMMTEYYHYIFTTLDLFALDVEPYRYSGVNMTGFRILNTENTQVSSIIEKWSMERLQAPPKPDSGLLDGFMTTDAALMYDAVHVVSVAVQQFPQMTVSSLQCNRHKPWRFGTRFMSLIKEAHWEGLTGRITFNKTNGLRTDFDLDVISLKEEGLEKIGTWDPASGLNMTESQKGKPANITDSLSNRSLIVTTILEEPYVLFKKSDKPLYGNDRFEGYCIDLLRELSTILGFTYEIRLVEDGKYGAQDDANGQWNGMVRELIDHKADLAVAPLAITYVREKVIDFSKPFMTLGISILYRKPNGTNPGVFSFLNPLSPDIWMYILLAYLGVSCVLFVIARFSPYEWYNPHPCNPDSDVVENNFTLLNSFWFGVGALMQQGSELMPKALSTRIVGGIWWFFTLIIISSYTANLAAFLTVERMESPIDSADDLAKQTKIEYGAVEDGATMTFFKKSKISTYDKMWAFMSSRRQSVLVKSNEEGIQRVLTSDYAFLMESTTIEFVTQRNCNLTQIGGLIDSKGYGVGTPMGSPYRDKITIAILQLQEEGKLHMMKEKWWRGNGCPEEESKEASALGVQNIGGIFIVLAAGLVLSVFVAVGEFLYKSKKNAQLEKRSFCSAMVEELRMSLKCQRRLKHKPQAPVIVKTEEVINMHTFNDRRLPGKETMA
Sequence of GluK2/GluK5 receptors (Q16478 15-980): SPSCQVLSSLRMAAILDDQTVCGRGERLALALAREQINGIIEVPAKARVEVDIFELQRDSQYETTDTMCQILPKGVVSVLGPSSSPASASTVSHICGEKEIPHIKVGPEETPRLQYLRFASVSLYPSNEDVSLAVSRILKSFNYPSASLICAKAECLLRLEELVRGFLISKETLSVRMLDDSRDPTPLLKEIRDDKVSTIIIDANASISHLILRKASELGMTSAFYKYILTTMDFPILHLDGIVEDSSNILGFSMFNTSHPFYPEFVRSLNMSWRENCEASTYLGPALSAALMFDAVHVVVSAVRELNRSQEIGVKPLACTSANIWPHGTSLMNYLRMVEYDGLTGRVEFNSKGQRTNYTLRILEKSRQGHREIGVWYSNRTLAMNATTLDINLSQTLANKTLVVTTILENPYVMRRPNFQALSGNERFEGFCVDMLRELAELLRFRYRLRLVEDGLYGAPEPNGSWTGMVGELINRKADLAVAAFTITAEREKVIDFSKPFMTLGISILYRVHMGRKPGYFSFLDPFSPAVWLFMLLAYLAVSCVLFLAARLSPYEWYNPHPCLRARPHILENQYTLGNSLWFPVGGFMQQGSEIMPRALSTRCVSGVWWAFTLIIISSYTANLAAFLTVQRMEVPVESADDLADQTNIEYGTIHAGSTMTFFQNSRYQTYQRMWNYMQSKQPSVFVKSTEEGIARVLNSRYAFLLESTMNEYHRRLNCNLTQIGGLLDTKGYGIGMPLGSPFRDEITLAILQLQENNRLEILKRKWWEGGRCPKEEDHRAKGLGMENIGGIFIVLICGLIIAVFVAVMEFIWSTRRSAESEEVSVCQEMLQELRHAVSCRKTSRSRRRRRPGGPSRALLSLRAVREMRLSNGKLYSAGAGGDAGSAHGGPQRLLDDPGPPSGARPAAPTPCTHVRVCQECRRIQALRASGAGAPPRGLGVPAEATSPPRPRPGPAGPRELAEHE

[2] = tested on: dentate gyrus of organotypic slices; assay: Spontaneous interictal-like activity, extracellular field recordings in pilocarpine-treated organotypic hippocampal slice cultures; assay type: cell-based, mouse; details: P=0.902, n=6
[3] = tested on: pilocarpine-status epilepticus model of chronic TLE; assay: Interictal spikes, in vivo local field potential recordings in DG of anesthetized pilocarpine-treated mice; set-up: species or system mouse
Protocol: as §1
Naïve wildtype (WT) and pilocarpine-treated WT or GluK2−/− mice (5-6 months old) were anaesthetized with xylazine 13 mg/kg/ketamine 66 mg/kg and placed in a stereotaxic frame (supplemental dosing was administered as required). Body temperature was maintained using a heating pad. The scalp was removed and a small bone window was drilled above the hippocampus (2.1 mm posterior to bregma and 1.4 mm lateral to midline over the right hemisphere). For local field potentials recordings performed in anaesthetized mice, a glass electrode ([…]) filled with Ringer solution (135 mM NaCl, 5.4 mM KCl, 1 mM MgCl2, 1.8 mM CaCl2, 5 mM HEPES) was inserted into the DG (depth, 1650 μm). Recordings were performed using a DAM-80 amplifier (low filter, 1 Hz; high filter, 3 KHz; World Precision Instruments, Sarasota, Fla.). UBP310 or vehicle (saline/10% DMSO) was subsequently injected intraperitoneally (i.p.). During recordings and subsequent analysis, the experimenter was blind to the genotype. For intrahippocampal electroencephalographic (EEG) recordings performed in freely-moving animal a stainless steel electrode (Plastic one, Roanoke, Va.) was inserted into the DG under anesthesia (see above). After a 4 day recovery, EEG (amplified (1000×), filtered at 0.16-97 Hz pass, acquired at 500 Hz) was monitored using a telemetric system (Data Sciences International, St. Paul, Minn.) for 4 days, 24 h per day. Intrahippocampal EEG traces represented the difference in potential between the electrode inserted into the DG and an electrode positioned above the cerebellum; food and water were given ad libitum. UBP310 or vehicle (saline/10% DMSO) was injected intraperitoneally twice a day.
In TLE, interictal spikes (ISs) represent one of the best documented biomarkers of epilepsy in patient and animal models (Staley et al., 2005). […]

[4] = target: homomeric GluK2 receptors (Homo sapiens, UniProt Q13002); details: cited from earlier work
Sequence of homomeric GluK2 receptors (Q13002 32-908): as the sequence (Q13002 32-908) above

Which “change in duration of ictal events” value ([1]; 60 mg/kg intraperitoneal for 3 days, P=0.286) does the source give for Cc1cn(C[C@H](N)C(=O)O)c(=O)n(Cc2ccsc2C(=O)O)c1=O [UBP310] here?
Its value is “without a significant change”.

What about the “reduction of number of ictal events” value ([1]; 60 mg/kg intraperitoneal twice a day for 3 days, WT epileptic mice, freely moving) of the same compound?
The value was 41%.

And the “inhibition of heteromeric GluK2/GluK5 receptors” value (GluK2/GluK5 receptors)?
Its value is “inhibits GluK2/GluK5”.

What about the “reduction of frequency of interictal-like activity in GluK1-/- versus WT mice” value [2] of the same compound?
The value was “similarly effective”.

And the “reduction of number of interictal spikes (ISs)” value ([3]; 60 mg/kg intraperitoneal, WT epileptic mice, anesthetized)?
The value was 64%.

What about the “change in IS amplitude” value ([3]; 60 mg/kg intraperitoneal, WT epileptic mice, data not shown) of the same compound?
The value was “no change in amplitude”.

And the “effect on number of ISs in GluK2-/- mice” value ([3]; 60 mg/kg, GluK2-/- mice, P=0.497)?
The value was “no effect”.

And the “effect on IS number at dose reduced by 10 times” value ([3]; injected dose reduced by 10 times from 60 mg/kg, P=0.548)?
Its value is “no significant effect”.

What about the “inhibition of homomeric GluK2 receptors” value [4] of the same compound?
The value was “not homomeric GluK2 receptors”.
